Laboratory results taken from PubChem BioAssay (NCI).
Values joined by “and” are separate entries in the source; they are usually repeats but may differ in a detail not shown here. Identical values can stand only once.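 Values below derive from 48-hour exposures of cells grown in 96-well plates, with endpoints linearly interpolated between the two concentrations bracketing the appropriate inhibition level. The concentration for 50% growth inhibition is given as GI50. TGI: concentration producing complete growth inhibition.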

Tested on: MDA-MB-468 breast
Test: NCI-60 cell line screen, 48 h

| Structure (SMILES) | GI50 | TGI |
| --- | --- | --- |
| Cc1cccc(-c2nn3c(c2-c2ccnc4ccc(C(N)=O)cc24)CCC3)n1 | > 100 µM | > 100 µM |
| CCN1C(=O)N(CC)C2C1NN=c1s/c(=C\c3ccccc3F)c(=O)n12 (stereo unspecified) | 0.027 µM | > 48.1 µM |
| O=C(CCCCCCCn1cc(-c2cccnc2)nn1)Nc1ccccc1-c1ccccc1 | 4.74 µM | > 51.6 µM |
| O=C(N/N=C/c1ccccc1O)C(O)(c1ccccc1)c1ccccc1 | 4.62 µM | > 100 µM |
| Cc1ccc(S(=O)(=O)Oc2ccc([N+](=O)[O-])cc2[N+](=O)[O-])cc1 | 13.2 µM | 28.4 µM |
| NC(=NCCCC1(c2ccccc2)CCCC1)Nc1ccc(Cl)cc1 | 1.65 µM | 3.25 µM |
| COc1cc2c(F)nccc2cc1C(=O)N[C@@H](c1ccc(F)c(Cl)c1)[C@@H]1C[C@@H](O)CN1 | 0.0527 µM | 2.33 µM |
| O=Nc1ccc(O)c2ccccc12 | 5.85 µM | 27.4 µM |
| CCC(CC)n1c(=O)c(SC2=NC3C(NN2)N(CC)C(=O)N3CC)c(C(=O)O)c2ccccc21 (stereo unspecified) | 0.92 µM | 27.8 µM |
| COc1ccccc1-c1cc(/C=C2\C(=O)Nc3ncc(Br)cc32)cc(Br)c1O | 7.4 µM | > 25 µM |
| O=C1CC2(CCOCC2)Oc2ncccc21 | 3.23 µM | 15.3 µM |
| C[C@@H](N)C1CCC(C(=O)Nc2ccncc2)CC1 (stereo partly specified) | > 100 µM | > 100 µM |
| COC(=O)[C@H]1[C@@H](O)[C@@]2(O)c3c(OC)cc(O[C@@H]4O[C@@H]([C@H](O)CO)CO[C@H]4OC)cc3O[C@@]2(c2ccc(OC)cc2)[C@@H]1c1ccccc1 | 0.00293 µM | 0.0112 µM |
| COC(=O)[C@H]1C(=O)[C@@]2(C)[C@H]([C@H](OC(=O)c3ccccc3)[C@]3(O)C[C@H](OC(=O)[C@H](O)[C@@H](NC(=O)c4ccc(F)cc4)c4ccccc4)C(C)=C1C3(C)C)[C@]1(OC(C)=O)CO[C@@H]1C[C@@H]2O | 0.00874 µM | 6.46 µM |
| Nc1ccccc1SC(CC(=O)c1ccccc1)c1ccc([N+](=O)[O-])cc1 (stereo unspecified) | 14.4 µM | 31 µM |
| Cn1cc(-c2csc(-c3cn(C)c4ccc(Br)cc34)n2)c2cnccc21 | 1.79 µM | 3.46 µM |
| O=C(c1ccc(OCCN2CCCCC2)cc1)c1c(-c2ccc(O)cc2)sc2cc(O)ccc12 | 3.04 µM and 3.13 µM | 15.8 µM and 12.2 µM |
| CC(C)CC1C(=O)N2CCC[C@H]2C2(O)O[C@](NC(=O)C3C=C4c5cccc6[nH]c(Br)c(c56)C[C@H]4N(C)C3)(C(C)C)C(=O)N12 (stereo partly specified) | 3.09 µM | 39.3 µM |
| CN1CCC(CNc2ccc3ncc(-c4cccc(OC(F)(F)F)c4)n3n2)CC1 | 1.24 µM and 1.11 µM | 2.74 µM and 3.28 µM |
| O=C1/C=C/[C@@H](O)[C@@H]2C[C@@H](O)C[C@H]2/C=C/CCC[C@H](CCc2ccc(C(F)(F)F)cc2)O1 | 0.0281 µM | 0.0829 µM |
| CCN(CC)CCCC(C)Nc1cc(-c2ccc(C(F)(F)F)cc2)c(C#N)c2nc3ccccc3n12 (stereo unspecified) | 1.75 µM | 3.35 µM |

| Structure (SMILES) | GI50 | TGI |
| --- | --- | --- |
| COc1ccccc1/C=C/C(=O)c1c(O)cc2occc2c1OC | 10.3 µM | 45.5 µM |
| COc1ccc(CCN2CCCN3C2=Nc2ccccc2S3(=O)=O)cc1 | 0.312 µM | > 100 µM |
| CN[C@@H](C)C(=O)N[C@H]1CN(C(=O)CC(C)C)CC[C@H]2CC[C@@H](C(=O)NC(c3ccccc3)c3ccccc3)N2C1=O | 39.2 µM | > 100 µM |
| Cc1ncc(C(=O)Nc2ccc(CN3CCN(C)CC3)c(C(F)(F)F)c2)cc1C#Cc1cnc(N)c2cnccc12 | 0.169 µM | 1.69 µM |
| CCNCCC1(CC)C(=O)NC(=O)NC1=O | > 100 µM | > 100 µM |
| NC(=O)C1c2ccccc2C=Cc2ccccc21 | 78.6 µM | > 100 µM |
| COc1ccc(-c2nsc3c2NC(=O)CC3c2ccc(F)cc2)cc1 (stereo unspecified) | 2.18 µM | > 30 µM |
| CCCCCCCCCCCCNC(=O)[C@H]1CSC(c2cc3ccccc3s2)N1 (stereo partly specified) | 1.09 µM | 4.11 µM |
| Cc1cc(C(=O)Nc2nc3cccc(Cl)c3n2[C@@H]2CCCCN(C(=O)/C=C/CN(C)C)C2)ccn1 | 0.102 µM | 1.27 µM |
| O=C1/C(=C\c2ccc(F)cc2)CN(C(=O)c2ccc([N+](=O)[O-])cc2)C/C1=C\c1ccc(F)cc1 | 1.38 µM | 3.68 µM |
| Cc1ccc2c(c1)C(C)Cc1c(ncnc1-n1cnc3cc(C)ccc31)N2C (stereo unspecified) | 0.0414 µM | 19 µM |
| COc1cccc(Cn2c(-c3nonc3N)nc3ccccc32)c1 | 0.312 µM |  |
| C/C1=C/C(=O)O[C@@H]2C[C@@H](CC[C@H](C)/C=C\C=C\CC1)O[C@@](O)([C@@H]1CSC(=O)N1CO)C2 | 0.0243 µM | 0.0765 µM |
| C=C(C)[C@@H]1CC[C@]2(C(N)=O)CC[C@]3(C)[C@H](CC[C@@H]4[C@@]5(C)CC[C@H](O)C(C)(C)[C@@H]5CC[C@]43C)[C@@H]12 | 3.2 µM | 11.9 µM |
| N#Cc1nc(-c2ccccc2)oc1S(=O)(=O)N1CCCCC1 | 10.2 µM | 28.5 µM |
| O=C1Oc2ccccc2C(=O)/C1=C/N1C(=O)/C(=C/c2ccc3c(c2)OCO3)SC1=S | 12.1 µM | 42 µM |
| COc1cc(-c2nc(NC(C)=O)sc2-c2ccnc(NCCNS(=O)(=O)c3ccccc3)n2)ccc1Cl | 2.56 µM | 9.61 µM |
| O=C1OC2C(O)COC2(O)C1(O)C(C[N+](=O)[O-])c1ccc(Cl)cc1 (stereo unspecified) | 16.9 µM | 44 µM |
| CC(C)CCSC1=CC(=O)c2ccccc2C1=O | 0.43 µM | 2.19 µM |
| CNC(=O)c1c(NC(=O)c2ccc(C(F)(F)F)cc2)sc2c1CCC(=O)C2 | 0.924 µM | 3.8 µM |
